US20140057953A1, “BIARYL DERIVATIVES AS SELECTIVE 17BETA-HYDROXYSTEROID DEHYDROGENASE TYPE 2 INHIBITORS” (priority 2011, published 2014)

Assays:
17β-HSD1 = target: T1, 17β-HSD1 (Homo sapiens, UniProt P14061); assay: Inhibition of 17β-HSD1 in cell-free assay; type: biochemical; details: human placenta, cytosolic fraction, substrate E1 500 nM, cofactor NADH 500 μM; for inhibition at 1 µM / % inhibition 17β-HSD1: inhibitor concentration 1 μM
T1 construct: For the partial purification of 17β-HSD1, the cytosolic fraction was precipitated with ammonium sulfate; from tissue; host or cells: human placenta, cytosolic fraction
T1 sequence (P14061 1-328): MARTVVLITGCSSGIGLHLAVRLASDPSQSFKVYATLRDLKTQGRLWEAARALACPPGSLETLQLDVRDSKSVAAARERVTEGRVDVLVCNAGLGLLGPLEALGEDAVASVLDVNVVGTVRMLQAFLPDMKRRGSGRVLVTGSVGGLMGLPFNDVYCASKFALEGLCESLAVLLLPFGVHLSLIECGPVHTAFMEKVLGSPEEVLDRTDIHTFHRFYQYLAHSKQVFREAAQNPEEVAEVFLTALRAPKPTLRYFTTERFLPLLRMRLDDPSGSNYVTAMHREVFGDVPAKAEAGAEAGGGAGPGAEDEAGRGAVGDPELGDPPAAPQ
Protocol: (§1) Fresh human placenta was homogenized. Cytosolic and microsomal fractions were separated by centrifugation at 1000 g, 10000 g and 150000 g. 17β-HSD2 was obtained directly from the microsomal fraction. For the partial purification of 17β-HSD1, the cytosolic fraction was precipitated with ammonium sulfate. Aliquots containing 17β-HSD1 or 17β-HSD2 were stored frozen.
The 17β-HSD1 inhibition assay was performed similarly to the 17β-HSD2 test. The cytosolic fraction was incubated with NADH [500 μM], test compound and a mixture of unlabelled- and [^3H]-E1 (final concentration: 500 nM, 0.15 μCi) for 10 min at 37° C. Further treatment of the samples and HPLC separation was carried out as mentioned above for 17β-HSD2.

17β-HSD2 = target: T2, 17β-HSD2 (Homo sapiens, UniProt P37059); assay: Inhibition of 17β-HSD2 in cell-free assay; type: biochemical; set-up: 17β-HSD2 was obtained directly from the microsomal fraction; from tissue; host or cells: human placenta, microsomal fraction; details: human placenta, microsomal fraction, substrate E2 500 nM, cofactor NAD+ 1500 μM; for inhibition at 1 µM / % inhibition 17β-HSD2: inhibitor concentration 1 μM
T2 sequence (P37059 1-387): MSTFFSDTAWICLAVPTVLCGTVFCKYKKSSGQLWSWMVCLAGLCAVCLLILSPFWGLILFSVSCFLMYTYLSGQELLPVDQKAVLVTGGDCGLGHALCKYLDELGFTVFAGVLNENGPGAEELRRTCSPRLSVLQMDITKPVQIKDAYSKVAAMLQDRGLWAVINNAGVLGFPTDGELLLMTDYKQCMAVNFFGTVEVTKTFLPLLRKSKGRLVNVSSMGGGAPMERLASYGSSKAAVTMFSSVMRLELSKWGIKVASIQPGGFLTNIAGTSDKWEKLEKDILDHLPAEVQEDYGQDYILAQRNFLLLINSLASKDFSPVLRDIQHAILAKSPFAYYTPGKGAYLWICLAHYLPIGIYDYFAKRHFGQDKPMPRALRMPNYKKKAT
Protocol: as §1
Inhibitor stock solutions were prepared in DMSO. Final concentration of DMSO was adjusted to 1% in all samples. The enzymatic reaction was started by addition of a mixture of unlabelled- and [^3H]-E2 (final concentration: 500 nM, 0.11 μCi). After 20 min at 37° C., the incubation was stopped with HgCl2 and the mixture was extracted with ether. After evaporation, the steroids were dissolved in acetonitrile. E1 and E2 were separated using acetonitrile/water (45:55) as mobile phase in a C18 RP chromatography column (Nucleodur C18, 3 μm, Macherey-Nagel, Duren) connected to a HPLC-system (Agilent 1100 Series, Agilent Technologies, Waldbronn). Detection and quantification of the steroids were performed using a radioflow detector (Berthold Technologies, Bad Wildbad). The conversion rate was calculated according to the following equation: […]

ERβ = ERβ (Homo sapiens, UniProt Q92731); assay: ER affinity assay (ERβ), [3H]-E2 displacement; details: Relative Binding Affinity, E2 = 100%; recombinant human protein
Protocol: (§2) The binding affinity of selected compounds to the ERα and ERβ was determined according to Zimmermann et al. (Zimmermann, J. et al., 3. Steroid Biochem. Mol. Biol., 94:57-66 (2005)) using recombinant human proteins. Briefly, 0.25 μM of ERα or ERβ, respectively, were incubated with [^3H]-E2 (10 nM) and test compound for 1 h at room temperature. The potential inhibitors were dissolved in DMSO (5% final concentration). Evaluation of non-specific-binding was performed with diethylstilbestrol (10 μM). After incubation, ligand-receptor complexes were selectively bound to hydroxyapatite (5 g/60 ml TE-buffer). The formed complex was separated, washed and resuspended in ethanol. For radiodetection, scintillator cocktail (Quickszint 212, Zinsser Analytic, Frankfurt) was added and the samples were measured in a liquid scintillation counter (Rack Beta Primo 1209, Wallac, Turku). […] The compound concentration to displace 50% of the receptor bound [^3H]-E2 were determined. Unlabelled E2 was used as a reference. For determination of the relative binding affinity (RBA) the ratio was calculated according to the following equation: […]
(§3) After the assay was established and validated a modification was made to increase throughput. […] Results were reported as RBA ranges.

ERα = target: T3, ERα (Homo sapiens, UniProt P03372); assay: ER affinity assay (ERα), [3H]-E2 displacement; details: Relative Binding Affinity, E2 = 100%; recombinant human protein
T3 sequence (P03372 1-595): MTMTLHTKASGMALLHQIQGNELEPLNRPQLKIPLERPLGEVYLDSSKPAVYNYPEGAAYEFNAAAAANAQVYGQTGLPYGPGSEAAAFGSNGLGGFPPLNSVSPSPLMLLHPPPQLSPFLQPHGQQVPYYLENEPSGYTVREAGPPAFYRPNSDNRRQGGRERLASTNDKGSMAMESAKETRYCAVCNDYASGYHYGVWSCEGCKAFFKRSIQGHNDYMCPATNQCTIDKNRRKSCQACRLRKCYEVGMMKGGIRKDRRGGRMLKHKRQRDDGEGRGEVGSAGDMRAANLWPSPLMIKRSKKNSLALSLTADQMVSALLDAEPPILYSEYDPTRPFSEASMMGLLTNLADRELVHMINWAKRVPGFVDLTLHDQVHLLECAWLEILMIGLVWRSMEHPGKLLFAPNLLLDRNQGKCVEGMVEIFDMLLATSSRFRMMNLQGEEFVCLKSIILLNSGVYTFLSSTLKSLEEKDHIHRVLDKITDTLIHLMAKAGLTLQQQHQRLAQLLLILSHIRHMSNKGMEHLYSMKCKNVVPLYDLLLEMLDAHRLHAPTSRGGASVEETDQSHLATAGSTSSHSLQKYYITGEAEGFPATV
Protocol: as §2, §3

ERβ, sequence (Q92731 whole entry): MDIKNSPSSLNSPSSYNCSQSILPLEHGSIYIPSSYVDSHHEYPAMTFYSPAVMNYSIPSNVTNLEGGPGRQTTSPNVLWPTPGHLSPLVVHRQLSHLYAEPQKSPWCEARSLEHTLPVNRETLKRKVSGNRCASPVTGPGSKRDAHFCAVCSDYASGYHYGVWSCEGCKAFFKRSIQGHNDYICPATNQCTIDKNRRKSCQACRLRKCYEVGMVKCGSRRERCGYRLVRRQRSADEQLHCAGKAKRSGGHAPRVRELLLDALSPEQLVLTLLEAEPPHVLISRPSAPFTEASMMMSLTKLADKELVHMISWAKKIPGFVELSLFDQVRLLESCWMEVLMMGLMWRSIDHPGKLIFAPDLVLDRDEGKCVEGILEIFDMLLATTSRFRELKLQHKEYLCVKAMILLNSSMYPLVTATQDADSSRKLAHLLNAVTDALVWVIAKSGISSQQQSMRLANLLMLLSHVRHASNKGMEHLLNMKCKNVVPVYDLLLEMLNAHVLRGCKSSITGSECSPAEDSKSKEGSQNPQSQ

| Structure (SMILES) | IC50 (17β-HSD1) | IC50 (17β-HSD2) | ERβ RBA (%) (ERβ) | ERα RBA (%) (ERα) | inhibition at 1 µM (17β-HSD1) | inhibition at 1 µM (17β-HSD2) | % inhibition 17β-HSD1 (17β-HSD1) | % inhibition 17β-HSD2 (17β-HSD2) |
| --- | --- | --- | --- | --- | --- | --- | --- | --- |
| COc1cccc(CN(C)C(=O)c2ccc(-c3cccc(C)c3)cc2)c1 [compound 3, N-(3-Methoxybenzyl)-N,3′-dimethylbiphenyl-4-carboxamide] | > 100000 nM | 265 nM | <0.1% | <0.1% |  |  |  |  |
| COc1cccc(-c2cccc(C(=O)N(C)c3cccc(OC)c3)c2)c1 [compound 11, 3′-Methoxy-N-(3-methoxyphenyl)-N-methylbiphenyl-3-carboxamide] | > 60000 nM | 517 nM | <0.1% | <0.1% |  |  |  |  |
| COc1cccc(CCN(C)C(=O)c2ccc(-c3ccccc3)s2)c1 [compound 19, N-(3-Methoxyphenethyl)-N-methyl-5-phenylthiophene-2-carboxamide] |  |  |  |  | 11% | 18% |  |  |
| CN(CCc1cccc(O)c1)C(=O)c1ccc(-c2ccccc2)s1 [compound 20, N-(3-Hydroxyphenethyl)-N-methyl-5-phenylthiophene-2-carboxamide] |  |  |  |  |  | 11% | n.i.^e |  |
| COc1cccc(CCN(C)C(=O)c2ccc(-c3cccc(F)c3)s2)c1 [compound 21, 5-(3-Fluorophenyl)-N-(3-methoxyphenethyl)-N-methylthiophene-2-carboxamide] |  |  |  |  |  |  | n.i.^e | n.i.^e |
| CN(CCc1cccc(O)c1)C(=O)c1ccc(-c2cccc(F)c2)s1 [compound 22, 5-(3-Fluorophenyl)-N-(3-hydroxyphenethyl)-N-methylthiophene-2-carboxamide] |  |  |  |  | 12% | 17% |  |  |
| COc1cccc(CN(C)C(=O)c2ccc(-c3cccc(OC)c3)s2)c1 [compound 23, N-(3-Methoxybenzyl)-5-(3-methoxyphenyl)-N-methylthiophene-2-carboxamide] | > 100000 nM | 370 nM | <0.1% | <0.1% |  |  |  |  |
| CN(Cc1cccc(O)c1)C(=O)c1ccc(-c2cccc(O)c2)s1 [compound 24, N-(3-Hydroxybenzyl)-5-(3-hydroxyphenyl)-N-methylthiophene-2-carboxamide] | > 5450 nM | 394 nM | <0.1% | <0.1% |  |  |  |  |
| CN(Cc1cccc(O)c1)C(=O)c1ccc(-c2ccc(O)cc2)s1 [compound 26, N-(3-Hydroxybenzyl)-5-(4-hydroxyphenyl)-N-methylthiophene-2-carboxamide] | 5100 nM | 335 nM | <0.1% | <0.1% |  |  |  |  |
| COc1cccc(CN(C)C(=O)c2ccc(-c3ccccc3OC)s2)c1 [compound 27, N-(3-Methoxybenzyl)-5-(2-methoxyphenyl)-N-methylthiophene-2-carboxamide] |  |  |  |  |  | 48% | n.i.^e |  |
| COc1cccc(CN(C)C(=O)c2ccc(-c3ccc(C#N)cc3)s2)c1 [compound 31, 5-(4-Cyanophenyl)-N-(3-methoxybenzyl)-N-methylthiophene-2-carboxamide] |  |  |  |  |  |  | n.i.^e | n.i.^e |
| CN(Cc1cccc(O)c1)C(=O)c1ccc(-c2cccc(N(C)C)c2)s1 [compound 40, 5-(3-(Dimethylamino)phenyl)-N-(3-hydroxybenzyl)-N-methylthiophene-2-carboxamide] | 18600 nM | 246 nM | <0.1% | <0.1% |  |  |  |  |
| CN(Cc1cccc(O)c1)C(=O)c1ccc(-c2cccc(F)c2)s1 [compound 41, 5-(3-Fluorophenyl)-N-(3-hydroxybenzyl)-N-methylthiophene-2-carboxamide] | 3150 nM | 326 nM |  |  |  |  |  |  |
| COc1cccc(-c2ccc(C(=O)N(C)Cc3cccc(O)c3)s2)c1F [compound 43, 5-(2-Fluoro-3-methoxyphenyl)-N-(3-hydroxybenzyl)-N-methylthiophene-2-carboxamide] | 4450 nM | 61 nM | <0.1% | <0.1% |  |  |  |  |
| Cc1cccc(-c2ccc(C(=O)N(C)Cc3cccc(O)c3)s2)c1 [compound 46, N-(3-Hydroxybenzyl)-N-methyl-5-m-tolylthiophene-2-carboxamide] | 10600 nM | 163 nM | <0.1% | <0.1% |  |  |  |  |
| COc1cccc(N(C)C(=O)c2ccc(-c3ccc(OC)cc3OC)s2)c1 [compound 57, 5-(2,4-Dimethoxyphenyl)-N-(3-methoxyphenyl)-N-methylthiophene-2-carboxamide] | 1930 nM | 313 nM |  |  |  |  |  |  |
| COc1cccc(N(C)C(=O)c2ccc(-c3cccc(N(C)C)c3)s2)c1 [compound 58, 5-(3-(Dimethylamino)phenyl)-N-(3-methoxyphenyl)-N-methylthiophene-2-carboxamide] | 10600 nM | 169 nM | <0.1% | <0.1% |  |  |  |  |
| COc1cccc(N(C)C(=O)c2ccc(-c3ccc(F)c(OC)c3)s2)c1 [compound 62, 5-(4-Fluoro-3-methoxyphenyl)-N-(3-methoxyphenyl)-N-methylthiophene-2-carboxamide] | > 100000 nM | 726 nM |  |  |  |  |  |  |
| COc1ccc(N(C)C(=O)c2ccc(-c3cccc(OC)c3F)s2)cc1 [compound 73, 5-(2-Fluoro-3-methoxyphenyl)-N-(4-methoxyphenyl)-N-methylthiophene-2-carboxamide] |  |  |  |  | 18% | 49% |  |  |
| COc1cccc(-c2ccc(C(=O)N(C)c3cccc(-c4ccccc4)c3)s2)c1 [compound 76, N-(Biphenyl-3-yl)-5-(3-methoxyphenyl)-N-methylthiophene-2-carboxamide] | 1110 nM | 137 nM |  |  |  |  |  |  |
